Results taken from patent US20240217957A1, “HETEROCYCLIC COMPOUND AND USE THEREOF” (TAKEDA PHARMACEUTICAL COMPANY LIMITED, priority 2022, published 2024).

Target: T1, human OX2 receptor (Homo sapiens, UniProt O43614)
T1 construct: expressed in transfected cells
T1 sequence (O43614 1-444): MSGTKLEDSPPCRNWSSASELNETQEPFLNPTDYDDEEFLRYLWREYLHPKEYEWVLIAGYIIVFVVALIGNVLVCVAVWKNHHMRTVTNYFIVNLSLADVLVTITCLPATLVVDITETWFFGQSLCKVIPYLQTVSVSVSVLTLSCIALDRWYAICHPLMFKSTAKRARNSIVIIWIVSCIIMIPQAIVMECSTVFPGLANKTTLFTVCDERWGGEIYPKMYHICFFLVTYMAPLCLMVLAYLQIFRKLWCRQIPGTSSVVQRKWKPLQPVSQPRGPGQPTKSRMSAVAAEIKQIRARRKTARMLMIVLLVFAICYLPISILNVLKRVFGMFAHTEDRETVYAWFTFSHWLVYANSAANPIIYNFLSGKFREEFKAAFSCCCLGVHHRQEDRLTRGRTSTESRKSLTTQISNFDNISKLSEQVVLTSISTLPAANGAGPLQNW
Experiment: Measurement of orexin type 2 receptor agonist activity (calcium fluorescence, Fluo-4 AM, FDSS)
Format: cell-based
Conditions: compound at 3 μM; CHO cells forcibly expressing human OX2 receptor; DMSO = 0%, 10 nM orexin A (human) = 100%
Method in brief: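 Agonist response is expressed as % of the fluorescence change given by 10 nM human orexin A, with DMSO as 0%, read over 1 min 40 s on FDSS after compound addition. Cells: stable human OX2 (1-444) CHO-K1 clones, dye-loaded with Fluo-4 AM plus probenecid in HEPES-buffered HBSS with 0.1% BSA.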

Cc1cnc([C@@H]2CC(N3C[C@H](F)[C@H](NS(=O)(=O)N(C)C)C3)=NO2)c(-c2c(F)cc(F)cc2F)c1 [Example 83, N′-[(3R,4S)-4-fluoro-1-{(5S)-5-[5-methyl-3-(2,4,6-trifluorophenyl)pyridin-2-yl]-4,5-dihydro-1,2-oxazol-3-yl}pyrrolidin-3-yl]-N,N-dimethylsulfuric diamide]
OX2R agonist activity (3 μM, %): 103%

CS(=O)(=O)N[C@@H]1CN(C2=NOC(c3ncc(Cl)cc3-c3c(F)cc(F)cc3F)C2)C[C@@H]1F (stereo partly drawn) [Example 84, N-[(3R,4S)-1-{5-[5-chloro-3-(2,4,6-trifluorophenyl)pyridin-2-yl]-4,5-dihydro-1,2-oxazol-3-yl}-4-fluoropyrrolidin-3-yl]methanesulfonamide]
OX2R agonist activity (3 μM, %): 97%

CS(=O)(=O)N[C@@H]1CN(C2=NOC(c3ncc(Br)cc3-c3c(F)cc(F)cc3F)C2)C[C@@H]1F (stereo partly drawn) [Example 85, N-[(3R,4S)-1-{5-[5-bromo-3-(2,4,6-trifluorophenyl)pyridin-2-yl]-4,5-dihydro-1,2-oxazol-3-yl}-4-fluoropyrrolidin-3-yl]methanesulfonamide]
OX2R agonist activity (3 μM, %): 99%

Cc1cnc(C2(CF)CC(N3C[C@H](F)[C@H](NS(C)(=O)=O)C3)=NO2)c(-c2c(F)cccc2F)c1 (stereo partly drawn) [Example 86, N-[(3R,4S)-1-{5-[3-(2,6-difluorophenyl)-5-methylpyridin-2-yl]-5-(fluoromethyl)-4,5-dihydro-1,2-oxazol-3-yl}-4-fluoropyrrolidin-3-yl]methanesulfonamide]
OX2R agonist activity (3 μM, %): 95%

CS(=O)(=O)N[C@H]1CCN(C2=NOC(CF)(c3ncc(F)cc3-c3c(F)cccc3F)C2)C1 (stereo partly drawn) [Example 87, N-[(3S)-1-{5-[3-(2,6-difluorophenyl)-5-fluoropyridin-2-yl]-5-(fluoromethyl)-4,5-dihydro-1,2-oxazol-3-yl}pyrrolidin-3-yl]methanesulfonamide]
OX2R agonist activity (3 μM, %): 104%

CCS(=O)(=O)N[C@H]1CCN(C2=NOC(CF)(c3ncc(F)cc3-c3c(F)cccc3F)C2)C1 (stereo partly drawn) [Example 88, N-[(3S)-1-{5-[3-(2,6-difluorophenyl)-5-fluoropyridin-2-yl]-5-(fluoromethyl)-4,5-dihydro-1,2-oxazol-3-yl}pyrrolidin-3-yl]ethanesulfonamide]
OX2R agonist activity (3 μM, %): 112%

O=S(=O)(N[C@H]1CCN(C2=NOC(CF)(c3ncc(F)cc3-c3c(F)cccc3F)C2)C1)C1(F)CC1 (stereo partly drawn) [Example 89, N-[(3S)-1-{5-[3-(2,6-difluorophenyl)-5-fluoropyridin-2-yl]-5-(fluoromethyl)-4,5-dihydro-1,2-oxazol-3-yl}pyrrolidin-3-yl]-1-fluorocyclopropane-1-sulfonamide]
OX2R agonist activity (3 μM, %): 93%

CS(=O)(=O)N[C@@H]1CN(C2=NOC(c3ncc(F)cc3-c3c(F)cc(F)cc3F)C2)C[C@@H]1F (stereo partly drawn) [Example 90, N-[(3R,4S)-4-fluoro-1-{5-[5-fluoro-3-(2,4,6-trifluorophenyl)pyridin-2-yl]-4,5-dihydro-1,2-oxazol-3-yl}pyrrolidin-3-yl]methanesulfonamide]
OX2R agonist activity (3 μM, %): 98%

COCS(=O)(=O)N[C@@H]1CN(C2=NO[C@H](c3ncc(C)cc3-c3c(F)cc(F)cc3F)C2)C[C@@H]1F [Example 91, N-[(3R,4S)-4-fluoro-1-{(5S)-5-[5-methyl-3-(2,4,6-trifluorophenyl)pyridin-2-yl]-4,5-dihydro-1,2-oxazol-3-yl}pyrrolidin-3-yl]-1-methoxymethanesulfonamide]
OX2R agonist activity (3 μM, %): 98%

CCS(=O)(=O)N[C@@H]1CN(C2=NO[C@H](c3ncc(C)cc3-c3c(F)cc(F)cc3F)C2)C[C@@H]1F [Example 92, N-[(3R,4S)-4-fluoro-1-{(5S)-5-[5-methyl-3-(2,4,6-trifluorophenyl)pyridin-2-yl]-4,5-dihydro-1,2-oxazol-3-yl}pyrrolidin-3-yl]ethanesulfonamide]
OX2R agonist activity (3 μM, %): 92%

Cc1cnc(C2(CF)CC(N3C[C@@H](NS(C)(=O)=O)C(F)(F)C3)=NO2)c(-c2c(F)cc(F)cc2F)c1 (stereo partly drawn) [Example 93, N-[(3R)-4,4-difluoro-1-{5-(fluoromethyl)-5-[5-methyl-3-(2,4,6-trifluorophenyl)pyridin-2-yl]-4,5-dihydro-1,2-oxazol-3-yl}pyrrolidin-3-yl]methanesulfonamide]
OX2R agonist activity (3 μM, %): 99%

Cc1cnc(C2(C)CC(N3C[C@H](F)[C@H](NS(C)(=O)=O)C3)=NO2)c(-c2c(F)cccc2F)c1 (stereo partly drawn) [Example 96, N-[(3R,4S)-1-{5-[3-(2,6-difluorophenyl)-5-methylpyridin-2-yl]-5-methyl-4,5-dihydro-1,2-oxazol-3-yl}-4-fluoropyrrolidin-3-yl]methanesulfonamide]
OX2R agonist activity (3 μM, %): 99%

Cc1cnc([C@@H]2CC(N3C[C@H](F)[C@H](NS(=O)(=O)C4CC4)C3)=NO2)c(-c2c(F)cc(F)cc2F)c1 [Example 97, N-[(3R,4S)-4-fluoro-1-{(5S)-5-[5-methyl-3-(2,4,6-trifluorophenyl)pyridin-2-yl]-4,5-dihydro-1,2-oxazol-3-yl}pyrrolidin-3-yl]cyclopropanesulfonamide]
OX2R agonist activity (3 μM, %): 103%

O=S(=O)(N[C@@H]1CN(C2=NOC(c3ncc(Cl)cc3-c3c(F)cccc3F)C2)C[C@@H]1F)C1CC1 (stereo partly drawn) [Example 98, N-[(3R,4S)-1-{5-[5-chloro-3-(2,6-difluorophenyl)pyridin-2-yl]-4,5-dihydro-1,2-oxazol-3-yl}-4-fluoropyrrolidin-3-yl]cyclopropanesulfonamide]
OX2R agonist activity (3 μM, %): 108%

Cc1cnc([C@@H]2CC(N3CC[C@H](NS(=O)(=O)C(C)F)C3)=NO2)c(-c2c(F)cccc2F)c1 (stereo partly drawn) [Example 99, N-[(3S)-1-{(5S)-5-[3-(2,6-difluorophenyl)-5-methylpyridin-2-yl]-4,5-dihydro-1,2-oxazol-3-yl}pyrrolidin-3-yl]-1-fluoroethane-1-sulfonamide]
OX2R agonist activity (3 μM, %): 101%

Cc1cnc([C@@H]2CC(N3CC[C@H](NS(=O)(=O)C(C)F)C3)=NO2)c(-c2c(F)cc(F)cc2F)c1 (stereo partly drawn) [Example 100, 1-fluoro-N-[(3S)-1-{(5S)-5-[5-methyl-3-(2,4,6-trifluorophenyl)pyridin-2-yl]-4,5-dihydro-1,2-oxazol-3-yl}pyrrolidin-3-yl]ethane-1-sulfonamide]
OX2R agonist activity (3 μM, %): 99%

O=S(=O)(CF)N[C@H]1CCN(C2=NOC(c3ncc(Cl)cc3-c3c(F)cccc3F)C2)C1 (stereo partly drawn) [Example 101, N-[(3S)-1-{5-[5-chloro-3-(2,6-difluorophenyl)pyridin-2-yl]-4,5-dihydro-1,2-oxazol-3-yl}pyrrolidin-3-yl]-1-fluoromethanesulfonamide]
OX2R agonist activity (3 μM, %): 98%

O=S(=O)(CF)N[C@H]1CCN(C2=NOC(c3ncc(Br)cc3-c3c(F)cccc3F)C2)C1 (stereo partly drawn) [Example 102, N-[(3S)-1-{5-[5-bromo-3-(2,6-difluorophenyl)pyridin-2-yl]-4,5-dihydro-1,2-oxazol-3-yl}pyrrolidin-3-yl]-1-fluoromethanesulfonamide]
OX2R agonist activity (3 μM, %): 95%

CS(=O)(=O)N[C@@H]1CN(C2=NOC(c3ncc(Cl)cc3-c3c(F)cccc3F)C2)C[C@@H]1F (stereo partly drawn) [Example 103, N-[(3R,4S)-1-{5-[5-chloro-3-(2,6-difluorophenyl)pyridin-2-yl]-4,5-dihydro-1,2-oxazol-3-yl}-4-fluoropyrrolidin-3-yl]methanesulfonamide]
OX2R agonist activity (3 μM, %): 96%

Cc1cnc(C2(CF)CC(N3C[C@@H](NS(C)(=O)=O)C(F)(F)C3)=NO2)c(-c2c(F)cccc2F)n1 (stereo partly drawn) [Example 104, N-[(3R)-1-{5-[3-(2,6-difluorophenyl)-5-methylpyrazin-2-yl]-5-(fluoromethyl)-4,5-dihydro-1,2-oxazol-3-yl}-4,4-difluoropyrrolidin-3-yl]methanesulfonamide]
OX2R agonist activity (3 μM, %): 102%

Cc1cnc(C2(CF)CC(N3C[C@H](F)[C@H](NS(C)(=O)=O)C3)=NO2)c(-c2c(F)cccc2F)n1 (stereo partly drawn) [Example 105, N-[(3R,4S)-1-{5-[3-(2,6-difluorophenyl)-5-methylpyrazin-2-yl]-5-(fluoromethyl)-4,5-dihydro-1,2-oxazol-3-yl}-4-fluoropyrrolidin-3-yl]methanesulfonamide]
OX2R agonist activity (3 μM, %): 97%

Cc1ccc(C2CC(N3C[C@@H](NS(C)(=O)=O)C(F)(F)C3)=NO2)c(-c2ncc(F)cc2F)c1 (stereo partly drawn) [Example 106, N-[(3R)-1-{5-[2-(3,5-difluoropyridin-2-yl)-4-methylphenyl]-4,5-dihydro-1,2-oxazol-3-yl}-4,4-difluoropyrrolidin-3-yl]methanesulfonamide]
OX2R agonist activity (3 μM, %): 108%

Cc1cnc(C2(CF)CC(N3C[C@@H](NS(C)(=O)=O)C(F)(F)C3)=NO2)c(-c2c(F)cccc2F)c1 (stereo partly drawn) [Example 108, N-[(3R)-1-{5-[3-(2,6-difluorophenyl)-5-methylpyridin-2-yl]-5-(fluoromethyl)-4,5-dihydro-1,2-oxazol-3-yl}-4,4-difluoropyrrolidin-3-yl]methanesulfonamide]
OX2R agonist activity (3 μM, %): 105%

Cc1cnc(C2(CF)CC(N3C[C@H](F)[C@H](NS(C)(=O)=O)C3)=NO2)c(-c2c(F)cc(F)cc2F)c1 (stereo partly drawn) [Example 110, N-[(3R,4S)-4-fluoro-1-{5-(fluoromethyl)-5-[5-methyl-3-(2,4,6-trifluorophenyl)pyridin-2-yl]-4,5-dihydro-1,2-oxazol-3-yl}pyrrolidin-3-yl]methanesulfonamide]
OX2R agonist activity (3 μM, %): 100%
